From ChEMBL document CHEMBL4765465, “Photoactive Bifunctional Degraders: Precision Tools To Regulate Protein Stability” (J Med Chem, 2020)

Key:
CWR22R = experiment: Growth inhibition of human 22Rv1 cells preincubated for 15 mins followed by UV irradiation and measured after 72 hrs by Celltiter-Glo assay; type: functional; settings: time 72.25 hrs
[1] = Half life of compound by UV-Visible spectrophotometric method; type: physicochemical

Row | Compound | growth inhibition (GI) (CWR22R) | half-life [1]
1 | Cc1sc2c(c1C)C(c1ccc(Cl)cc1)=N[C@@H](CC(=O)NCCOCCOCCNC(=O)COc1cccc3c1C(=O)N(C1CCC(=O)N(COC(C)c4cc5c(cc4[N+](=O)[O-])OCO5)C1=O)C3=O)c1nnc(C)n1-2 (some centres not stated) | <=39% | –
2 | COc1cc(COC(=O)N2C(=O)CCC(N3C(=O)c4cccc(OCC(=O)NCCCCNC(=O)C[C@@H]5N=C(c6ccc(Cl)cc6)c6c(sc(C)c6C)-n6c(C)nnc65)c4C3=O)C2=O)c([N+](=O)[O-])cc1OC (some centres not stated) | – | 58 min
